Measurements reported in ChEMBL document CHEMBL1201862, “PubChem BioAssay data set” (2004).
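Growth conditions: 96-well plates. Treatment: test compound, 48 hours, 5 concentrations. Analysis: linear interpolation between bracketing concentrations; unreached endpoints set to highest concentration. GI50 marks 50% less growth.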 Active and inactive are the calls of the source. Rule as the data show it: active = GI50 up to about 1.1 µM and inactive = higher.

Tests used:
Test in all cases: NCI-60 cell line screen, 48 h
NCI-H23 = test system: NCI-H23
RPMI-8226 = test system: RPMI-8226
TK-10 = test system: TK-10
UACC-62 = test system: UACC-62
SNB-75 = test system: SNB-75
ACHN = test system: ACHN
PC-3 = test system: PC-3
SK-OV-3 = test system: SK-OV-3
NCI-H522 = test system: NCI-H522
NCI/ADR-RES = test system: NCI/ADR-RES
CAKI-1 = test system: CAKI-1
HCT-15 = test system: HCT-15
K562 = test system: K562
MDA-N = test system: MDA-N
SF-539 = test system: SF-539
M14 = test system: M14
HOP-62 = test system: HOP-62
DU-145 = test system: DU-145
UO-31 = test system: UO-31
SN12C = test system: SN12C

Compound	GI50 (NCI-H23)	GI50 (RPMI-8226)	GI50 (TK-10)	GI50 (UACC-62)	GI50 (SNB-75)	GI50 (ACHN)	GI50 (PC-3)	GI50 (SK-OV-3)	GI50 (NCI-H522)	GI50 (NCI/ADR-RES)	GI50 (CAKI-1)	GI50 (HCT-15)	GI50 (K562)	GI50 (MDA-N)	GI50 (SF-539)	GI50 (M14)	GI50 (HOP-62)	GI50 (DU-145)	GI50 (UO-31)	GI50 (SN12C)
C[C@@H](Cl)[C@H]1CCCN(Cc2ccc(Br)cc2)C1	> 12.5 µM (inactive)	> 12.5 µM (inactive)	> 12.5 µM (inactive)	> 12.5 µM (inactive)	> 12.5 µM (inactive)	> 12.5 µM (inactive)	> 12.5 µM (inactive)	> 12.5 µM (inactive)	> 12.5 µM (inactive)	> 12.5 µM (inactive)	> 12.5 µM (inactive)	> 12.5 µM	> 12.5 µM (inactive)	> 12.5 µM (inactive)	> 12.5 µM (inactive)	> 12.5 µM (inactive)	> 12.5 µM (inactive)	> 12.5 µM (inactive)	> 12.5 µM (inactive)	
Nc1c2ccccc2nc2c1ccc1ncccc12	17.4 µM (inactive)		34.1 µM (inactive)	14.5 µM (inactive)	22.3 µM (inactive)	5.38 µM (inactive)	16.3 µM (inactive)	30.5 µM (inactive)	12 µM (inactive)	19.9 µM (inactive)	25.7 µM (inactive)	14.2 µM	12.5 µM (inactive)	28.1 µM (inactive)	14.7 µM (inactive)	19.4 µM (inactive)		28.2 µM (inactive)	10.1 µM (inactive)	21.1 µM (inactive)
CC(C)=CC(=O)c1[nH]c2ccccc2c1CC(=O)NCCc1cncn1C	51.1 µM (inactive)		58.7 µM (inactive)	61.9 µM (inactive)	52.4 µM (inactive)	66.4 µM (inactive)	50.2 µM (inactive)	> 100 µM (inactive)	21.8 µM (inactive)	> 100 µM (inactive)	> 100 µM (inactive)	> 100 µM	30.5 µM (inactive)	50.7 µM (inactive)	60.7 µM (inactive)	72.3 µM (inactive)		32.5 µM (inactive)	21.4 µM (inactive)	77.1 µM (inactive)
Cc1cc(S(=O)(=O)Nc2nc(N)nc(N3N=CCC3C)n2)c(S)cc1Cl (stereo not given)	> 10 µM (inactive)	> 10 µM (inactive)	> 10 µM (inactive)		> 10 µM (inactive)	> 10 µM (inactive)	> 10 µM (inactive)	> 10 µM (inactive)	> 10 µM (inactive)	> 10 µM (inactive)	> 10 µM (inactive)	> 10 µM	> 10 µM (inactive)	> 10 µM (inactive)	> 10 µM (inactive)	> 10 µM (inactive)	> 10 µM (inactive)	> 10 µM (inactive)	> 10 µM (inactive)	> 10 µM (inactive)
CCOC(=O)c1ccc(/N=C2/C(=S)N(c3ccc(C(=O)OCC)cc3)C(=N)N2/N=C/c2ccccc2)cc1	> 10 µM (inactive)	4.13 µM (inactive)	23.2 µM (inactive)	5.7 µM (inactive)			2.61 µM (inactive)	24.1 µM (inactive)	2.34 µM (inactive)	38.3 µM (inactive)	13.9 µM (inactive)	27.3 µM	3.7 µM (inactive)	12.1 µM (inactive)	20.1 µM (inactive)	11.8 µM (inactive)	> 10 µM (inactive)	37.3 µM (inactive)	13.2 µM (inactive)	17.9 µM (inactive)
Cc1ccc(-c2n[nH]c(=O)[nH]2)cc1	> 100 µM (inactive)	> 100 µM (inactive)	> 100 µM (inactive)	> 100 µM (inactive)	> 100 µM (inactive)	> 100 µM (inactive)	> 100 µM (inactive)		> 100 µM (inactive)	> 100 µM (inactive)	> 100 µM (inactive)	> 100 µM	> 100 µM (inactive)	> 100 µM (inactive)	> 100 µM (inactive)	> 100 µM (inactive)	> 100 µM (inactive)	> 100 µM (inactive)	> 100 µM (inactive)	> 100 µM (inactive)
Cc1cc2nc3[nH]nc(N)c3nc2cc1C	> 100 µM (inactive)	> 100 µM (inactive)	> 100 µM (inactive)	> 100 µM (inactive)	26.2 µM (inactive)	> 100 µM (inactive)	> 100 µM (inactive)	> 100 µM (inactive)	> 100 µM (inactive)	> 100 µM (inactive)	> 100 µM (inactive)	> 100 µM	> 100 µM (inactive)	> 100 µM (inactive)		> 100 µM (inactive)	70 µM (inactive)	36.6 µM (inactive)	> 100 µM (inactive)	> 100 µM (inactive)
